We go through eight compounds from patent publication US5618807A, “Method for preparing 17-substituted steroids useful in cancer treatment” (priority 1992, dated 1997).

In one data set the target is T1, aromatase (Homo sapiens, UniProt P11511).
T1 construct: using human placental microsomes; from tissue; host or cells: human placental microsomes
T1 sequence (P11511 1-503): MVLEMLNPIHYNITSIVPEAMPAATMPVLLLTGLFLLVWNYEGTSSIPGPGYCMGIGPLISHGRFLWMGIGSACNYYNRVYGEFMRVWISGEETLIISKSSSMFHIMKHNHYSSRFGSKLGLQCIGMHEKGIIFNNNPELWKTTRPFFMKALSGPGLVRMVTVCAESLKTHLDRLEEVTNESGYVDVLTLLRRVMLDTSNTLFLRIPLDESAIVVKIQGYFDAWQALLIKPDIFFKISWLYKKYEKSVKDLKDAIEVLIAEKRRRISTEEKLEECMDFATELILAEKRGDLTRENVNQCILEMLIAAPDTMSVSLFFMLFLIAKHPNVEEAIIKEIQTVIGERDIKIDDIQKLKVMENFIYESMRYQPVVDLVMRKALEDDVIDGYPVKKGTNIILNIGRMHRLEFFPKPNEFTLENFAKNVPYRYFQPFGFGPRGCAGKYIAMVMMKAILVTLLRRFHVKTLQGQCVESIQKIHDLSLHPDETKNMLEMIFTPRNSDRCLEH
Format: biochemical. The settings on record: human placental microsomes used; read-out: Michaelis constant Km.

Details of data set [1]: species or system mice (male HWT). The settings on record: mouse, in vivo, ip. As to the method: (§1) Male HWT mice, 12 weeks old, were treated daily for 2 weeks, with 5 animals per treatment group. The test compounds were the compound of Examples 1 and 4 (as representative of compounds of the invention having the pregenolone-like and progesterone-like skeletons respectively). Ketoconazole was also tested at three different doses. The test compounds were made up in 5% benzyl alcohol, 95% safflower oil, and were given i.p.. In addition to an untreated control group of animals, there was also a solvent control group which received the same volume of liquid as the test group (5 ml/kg) but no test compound. All animals were sacrificed 24 hours after the last injection. Blood was collected by cardiac puncture into heparinized tubes, and the plasma used for RIA (radio immunoassay) of testosterone and luteinising hormone. The following organs were removed and weighed: adrenals, prostate, seminal vesicles, testes, kidneys. There was no significant body weight loss in any group of mice during the experiments.
In Ketoconazole-treated animals, adhesions were found in 2/5,2/5,4/5 of the low/middle/top dose groups. […] The livers were brown in the middle/top dose groups.

The next data set concerns Male HWT mice. Format: in vivo. The settings on record: for Kidneys mean weight ± standard error: 2 weeks. As to the method: as §1
The target in the next data set is T2, 17α-Hydroxylase (Homo sapiens, UniProt P05093).
T2 construct: A microsomal preparation was prepared essentially as described by S. E. Barrie et al; from tissue; host or cells: human testis microsomes
T2 sequence (P05093 1-508): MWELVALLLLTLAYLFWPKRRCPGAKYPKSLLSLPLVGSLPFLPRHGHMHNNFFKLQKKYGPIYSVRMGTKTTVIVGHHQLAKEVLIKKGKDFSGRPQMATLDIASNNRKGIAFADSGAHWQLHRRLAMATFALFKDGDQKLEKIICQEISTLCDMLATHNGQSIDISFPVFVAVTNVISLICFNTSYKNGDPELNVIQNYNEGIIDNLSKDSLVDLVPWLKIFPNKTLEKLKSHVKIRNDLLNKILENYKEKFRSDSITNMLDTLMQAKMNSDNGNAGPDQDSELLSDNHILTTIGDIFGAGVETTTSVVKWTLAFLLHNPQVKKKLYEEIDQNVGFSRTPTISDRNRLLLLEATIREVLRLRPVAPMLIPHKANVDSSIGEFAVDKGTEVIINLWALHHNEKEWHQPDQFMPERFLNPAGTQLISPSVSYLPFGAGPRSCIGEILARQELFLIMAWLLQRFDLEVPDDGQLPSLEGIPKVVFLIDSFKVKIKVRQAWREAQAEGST
Kind of data set: Determination of 17α-hydroxylase inhibition (human testicular microsomes, 3H-progesterone substrate). Format: biochemical. The settings on record: relative to 3-pyridyl compound.

Another data set addresses T3, C17-C20 lyase (Homo sapiens, UniProt P05093).
T3 construct: A microsomal preparation was prepared essentially as described by S. E. Barrie et al; from tissue; host or cells: human testis microsomes
T3 sequence (P05093 1-508): T2 sequence (P05093 1-508)
Kind of data set: Determination of C17-C20 lyase inhibition (human testicular microsomes, 3H-17α-hydroxyprogesterone substrate). Format: biochemical. The settings on record: for concentration required to achieve 50% inhibition of lyase, compared with the 3-pyridyl (in words): relative to 3-pyridyl compound.

Data set [2] deals with testosterone and luteinising hormone. Briefly: In vivo endocrine test in mice (plasma testosterone and LH by RIA). The settings on record: 2 weeks. Details: species or system mice (male HWT).
Description: Male HWT mice, 12 weeks old, were treated daily for 2 weeks, with 5 animals per treatment group. […] The test compounds were made up in 5% benzyl alcohol, 95% safflower oil, and were given i.p.. In addition to an untreated control group of animals, there was also a solvent control group which received the same volume of liquid as the test group (5 ml/kg) but no test compound. All animals were sacrificed 24 hours after the last injection. Blood was collected by cardiac puncture into heparinized tubes, and the plasma used for RIA (radio immunoassay) of testosterone and luteinising hormone.

Like-named read-outs stand apart in the source and are kept apart here.

Description for 17α-Hydroxylase: (§2) Human testes were obtained from previously untreated patients undergoing orchidectomy for prostatic cancer. The testes were decapsulated and stored in liquid nitrogen until use. […] The material was then thawed, finely chopped, and homogenised in 0.25M sucrose (5 ml/g wet weight) using a Potter homogeniser. The homogenate was centrifuged at 12000 g for 30 min, and then the microsomes were pelleted by spinning the supernatant at 100,000 g for 1 hr. The pellet was washed by being resuspended in 0.25M sucrose and repelleted. The microsomal pellet was then resuspended in 50 mM sodium phosphate pH 7.4/ glycerol (3/1 v/v) and stored in aliquots in liquid nitrogen.
(§3) The basic assay mixture was EDTA (0.2 mM), dithiothreitol (DTT; 0.1 mM), NADPH (0.25 mM), glucose 6-phosphate dehydrogenase (G6PDH; 6.25 μg/ml), MgCl2 (1 mM), glucose 6-phosphate (G6P; 10 mM) and the substrate, ^3 H-progesterone (3 μM) in sodium phosphate (50 mm), pH 7.4. The compounds under test were dissolved in 50% DMSO and the final concentrations of ethanol and DMSO were 1% each. The assay reaction was carried out for 1 hour and was terminated by the addition of 2 vols. of methanol-acetonitrile (2:1) containing approx. 100 μM unlabelled progesterone, 17α-hydroxyprogesterone, androstenedione, testosterone, and 16α-hydroxyprogesterone.
The separation of the steroids by HPLC was carried out using an "Uptight" guard column packed with 40-63 μm Nucleosil C18 and a 10 cm main column packed with 5 μm Nucleosil C18 and 60% methanol as eluant. The radioactivity in the peaks of interest was monitored on-line by mixing the HPLC effluent 1:1 with Ecoscint A (National Diagnostics) scintillation fluid, containing 25% acetonitrile, and passing the mixture through a Berthold LB506C radiochemical monitor. The hydroxylase activity was measured as the production of 17α-hydroxyprogesterone, androstenedione and testosterone.
The enzyme activity was measured in the presence of at least 4 concentrations of each compound. […]
Description for C17-C20 lyase: as §2, §3
The mixture was the same as described above for the 17αt-hydroxylase except that the substrate was ^3 H-17α-hydroxy- progesterone.
The HPLC separation used for the lyase involved a mini-re-column "Uptight Guard Column" packed with PELL-ODS (pellicular octadecyl silica) and a 10 cm. main column "Apex C18" column packed with 5 μ, APEX-CAT silica.
The eluant was 38:12:50 methanol:acetonitrile:water flowing at 1 ml/min. The effluent was mixed 1:1 with Ecoscint A containing 5% methanol and 5% acetonitrile and the radioactivity was measured directly by a Berthold LB506C radiochemical detector. The lyase activity was measured as the production of androstenedione and testosterone.
The enzyme activity was measured in the presence of at least 4 concentrations of each compound. […] Data for all the other compounds were fitted by non-linear regression to the median effect equation of Chou, J. Theoret.
Description for aromatase: Aromatase activity was determined by the method of A. B. Foster et all., J. Med. Chem. 26, 50-54 (1983), using human placental microsomes.

The Km is the concentration of substrate that gives half-maximal velocity. On to `[3H][C@@H]1CC(=O)C=C2CC[C@@H]3[C@H](CC[C@]4(C)C(=O)CC[C@@H]34)[C@]21C` [[1β-^3 H]androstenedione], for which the Km on aromatase worked out at 0.039 µM.
On to `CC(=O)N1CCN(c2ccc(OCC3COC(Cn4ccnc4)(c4ccc(Cl)cc4Cl)O3)cc2)CC1` (centres unmarked) [Ketoconazole], for which the “post mortem examination: gut and peritoneal wall” value in data set [1] is “seemed to be stuck to the seminal vesicles”. The “effect on adrenal weight (in words)” value in the data set with Male HWT mice (mouse, in vivo) is on record as “increase in adrenal weight”.
As for `C[C@]12CC[C@H](O)CC1=CC[C@@H]1[C@@H]2CC[C@]2(C)C(Cc3ccccn3)=CC[C@@H]12` [Example 2-picolyl], the “concentration required to achieve 50% inhibition of hydroxylase, compared with the 3-pyridyl (in words)” value on 17α-Hydroxylase was “far greater”. In addition, the “concentration required to achieve 50% inhibition of lyase, compared with the 3-pyridyl (in words)” value on C17-C20 lyase is reported as “far greater”.
For `CC(=O)O[C@H]1CC[C@@]2(C)C(=CC[C@@H]3[C@@H]2CC[C@]2(C)C(c4cccnc4)=CC[C@@H]32)C1` [Example 1, 3β-acetoxy-17-(3-pyridyl)androsta-5,16-diene], the “Testosterone (mean ± standard error)” value in data set [2] (0.02 mmol/kg/day i.p.) was determined as 2.7 ± 0.5 nM; in data set [2] (0.1 mmol/kg/day i.p.), 0.2 ± 0.1 nM; in data set [2] (0.5 mmol/kg/day i.p.) it was 0.1 ± 0.0 nM. In data set [1], the “post mortem examination: appearance of organs” value is reported as “all organs looked normal”. The “post mortem examination: deposits” value in data set [1] is reported as “oil/white deposits i.p”. Moreover, the “Kidneys mean weight ± standard error” value in the data set on Male HWT mice (0.02 mmol/kg/day i.p.) was determined as 604 ± 24 mg; with Male HWT mice (0.1 mmol/kg/day i.p.) it was 500 ± 8 mg; with Male HWT mice (0.5 mmol/kg/day i.p.), 449 ± 12 mg.
For `C[C@]12CC[C@H](O)CC1=CC[C@@H]1[C@@H]2CC[C@]2(C)C(c3ccccn3)=CC[C@@H]12` [Example 2-Pyridyl], the “concentration required to achieve 50% inhibition of hydroxylase, compared with the 3-pyridyl (in words)” value on 17α-Hydroxylase is “far greater”. The “concentration required to achieve 50% inhibition of lyase, compared with the 3-pyridyl (in words)” value on C17-C20 lyase was “far greater”.
The term IC50 denotes the concentration needed to halve the response being measured. A lower IC50 goes with greater potency. `C[C@]12CCC(=O)C=C1[C@@H](F)C[C@@H]1[C@@H]2CC[C@]2(C)C(c3cccnc3)=CC[C@@H]12` [Example 12, 6α-Fluoro-17-(3-pyridyl)androsta-4,16-dien-3-one] showed an IC50 on C17-C20 lyase (Table 2, approx. 4 nM enzyme, listed as Ex. 12) of 2.2 nM.
With `C[C@]12CCC(=O)C=C1CC[C@@H]1[C@@H]2CC[C@]2(C)C(c3cccnc3)=CC[C@@H]12` [Example 4, 17-(3-Pyridyl)androsta-4,16-dien-3-one], in data set [1], the “post mortem examination: appearance of organs” value is recorded as “all organs looked normal” and the “post mortem examination: deposits” value is on record as “white deposits throughout the abdomen”.
Turning to `C[C@]12CC[C@H](O)CC1=CC[C@@H]1[C@@H]2CC[C@]2(C)C(c3ccncc3)=CC[C@@H]12` [Example 4-pyridyl], the “concentration required to achieve 50% inhibition of hydroxylase, compared with the 3-pyridyl (in words)” value on 17α-Hydroxylase is reported as “far greater”. Besides, on C17-C20 lyase, the “concentration required to achieve 50% inhibition of lyase, compared with the 3-pyridyl (in words)” value was “far greater”.
